Data on six compounds can be found in ChEMBL document CHEMBL1201862, “PubChem BioAssay data set” (2004).

Assay [1] can be described thus: luciferase reporter signal suppression in cells – H4 neuroglioma cells, luminescence, dose response (AID 1990). The assay is classed as functional, cell-based. (A reporter such as luciferase makes a cellular process visible.)
The nature of assay [2]: A Cell Based Secondary Assay To Explore Cytotoxicity of Compounds that Sensitize Mycobacterium Tuberculosis to Beta-Lactam Antibiotics. The assay is classed as functional.
Assay [3] in a line: Luminescence Cell-Based Dose Response HTS to Identify Inhibitors of 5'UTR Stem-Loop Driven Prion Protein mRNA Translation in H4 Neuroglioblastoma Cells. [Related pubchem assays: 1827 (Project Summary), 1813 (Primary HTS)]. The assay is classed as functional.
The nature of assay [4]: alpha-synuclein stem-loop luciferase translation blockers – H4 neuroglioma cells, luminescence, confirmation (AID 1988). The assay is classed as functional, cell-based.
In the next assay the test system is Jurkat. The assay can be described thus: blockers of NF-kB activation in T cells – Jurkat, luciferase reporter, luminescence, B- and T-cell, dose response (AID 489004).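 Also: NF-kB luciferase reporter Jurkat cells stimulated with PMA plus ionomycin.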 The assay is classed as functional, cell-based. The note with it: Homo sapiens.
Assay [5] in a line: HEK-293T viability loss, compound-treated – cell-based, uHTS hits, cytotoxicity control for B/T-cell NF-kB inhibitor project, dose response (AID 489019).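 Also: IC50 reflects cytotoxicity as loss of cell viability.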 The assay is classed as functional.
The next assay has as its system HEK293. The assay can be described thus: EBV LMP1 TES2 canonical NF-kB signalling blockers – cell-based, HEK293, luciferase, cherry-pick, dose response (AID 588343). The note with it: Homo sapiens. The assay is classed as functional.
The nature of assay [6]: viability loss in HEK293T cells – cell-based, cherry-picks, cytotoxicity control for HIV Vif inhibitor project, dose response (AID 652208). The assay is classed as functional.
A further assay deals with T1, Hexokinase-1 (Homo sapiens, UniProt P19367).
T1 sequence (P19367 whole entry): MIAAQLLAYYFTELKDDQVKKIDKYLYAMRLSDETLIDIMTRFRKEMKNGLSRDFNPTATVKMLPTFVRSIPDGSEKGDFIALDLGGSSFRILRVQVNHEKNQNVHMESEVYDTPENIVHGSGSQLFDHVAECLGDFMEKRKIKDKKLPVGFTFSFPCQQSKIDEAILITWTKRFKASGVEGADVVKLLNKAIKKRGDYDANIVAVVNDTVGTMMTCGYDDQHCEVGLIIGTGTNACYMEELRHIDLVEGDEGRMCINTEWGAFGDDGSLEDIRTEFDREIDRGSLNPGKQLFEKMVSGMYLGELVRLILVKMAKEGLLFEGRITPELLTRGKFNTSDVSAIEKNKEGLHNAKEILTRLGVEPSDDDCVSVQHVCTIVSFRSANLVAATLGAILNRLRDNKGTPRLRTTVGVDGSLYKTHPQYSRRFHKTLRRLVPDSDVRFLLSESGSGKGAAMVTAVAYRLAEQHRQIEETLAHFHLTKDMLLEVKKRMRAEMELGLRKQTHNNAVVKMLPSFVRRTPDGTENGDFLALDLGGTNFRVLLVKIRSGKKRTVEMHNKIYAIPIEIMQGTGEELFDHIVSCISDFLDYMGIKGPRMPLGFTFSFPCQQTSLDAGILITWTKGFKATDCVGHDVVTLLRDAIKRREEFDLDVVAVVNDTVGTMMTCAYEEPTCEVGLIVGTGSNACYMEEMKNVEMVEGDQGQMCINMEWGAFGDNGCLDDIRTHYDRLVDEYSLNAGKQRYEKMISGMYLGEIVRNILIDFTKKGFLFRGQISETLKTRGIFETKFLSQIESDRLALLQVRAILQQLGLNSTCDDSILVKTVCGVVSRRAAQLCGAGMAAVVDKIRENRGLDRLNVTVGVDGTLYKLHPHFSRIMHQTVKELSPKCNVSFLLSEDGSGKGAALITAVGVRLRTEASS
As to the kind of experiment: SAR analysis of small molecule inhibitors of hexokinase domain containing I (HKDC1) in the hexokinase 1 selectivity assay. [Related pubchem assays (depositor defined):AID493160, AID493190]. The assay is classed as functional.

The target in another assay is T2, Hexokinase HKDC1 (Homo sapiens, UniProt Q2TB90).
T2 sequence (Q2TB90 whole entry): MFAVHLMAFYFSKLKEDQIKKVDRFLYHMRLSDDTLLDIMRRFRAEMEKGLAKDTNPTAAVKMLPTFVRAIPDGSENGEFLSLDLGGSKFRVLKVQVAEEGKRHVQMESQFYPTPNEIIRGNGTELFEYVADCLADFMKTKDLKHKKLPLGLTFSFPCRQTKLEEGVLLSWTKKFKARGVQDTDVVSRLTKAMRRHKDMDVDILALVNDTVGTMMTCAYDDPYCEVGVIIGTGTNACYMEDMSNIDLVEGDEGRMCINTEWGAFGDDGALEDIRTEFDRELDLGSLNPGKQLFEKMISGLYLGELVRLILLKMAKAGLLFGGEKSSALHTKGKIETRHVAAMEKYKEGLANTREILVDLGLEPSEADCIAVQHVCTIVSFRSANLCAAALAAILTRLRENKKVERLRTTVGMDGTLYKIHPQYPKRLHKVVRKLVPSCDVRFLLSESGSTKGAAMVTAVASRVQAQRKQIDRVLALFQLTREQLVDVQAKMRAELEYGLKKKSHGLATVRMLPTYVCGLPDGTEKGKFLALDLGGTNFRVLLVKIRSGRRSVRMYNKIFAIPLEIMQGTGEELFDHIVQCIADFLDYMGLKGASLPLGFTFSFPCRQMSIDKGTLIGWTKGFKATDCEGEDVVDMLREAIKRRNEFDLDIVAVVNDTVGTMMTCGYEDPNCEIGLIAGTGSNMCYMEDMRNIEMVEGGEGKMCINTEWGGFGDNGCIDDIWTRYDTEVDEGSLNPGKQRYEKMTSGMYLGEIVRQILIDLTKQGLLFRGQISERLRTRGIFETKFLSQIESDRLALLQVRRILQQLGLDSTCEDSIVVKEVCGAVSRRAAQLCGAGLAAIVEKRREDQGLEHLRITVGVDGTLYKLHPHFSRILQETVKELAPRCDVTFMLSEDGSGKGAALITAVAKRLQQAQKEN
As to the kind of experiment: SAR analysis of small molecule inhibitors of hexokinase domain containing I (HKDC1). [Related pubchem assays (depositor defined):AID493160, AID493190]. The assay is classed as functional.

Assay [7] deals with T3, High affinity choline transporter 1 (Homo sapiens, UniProt Q9GZV3).
T3 sequence (Q9GZV3 whole entry): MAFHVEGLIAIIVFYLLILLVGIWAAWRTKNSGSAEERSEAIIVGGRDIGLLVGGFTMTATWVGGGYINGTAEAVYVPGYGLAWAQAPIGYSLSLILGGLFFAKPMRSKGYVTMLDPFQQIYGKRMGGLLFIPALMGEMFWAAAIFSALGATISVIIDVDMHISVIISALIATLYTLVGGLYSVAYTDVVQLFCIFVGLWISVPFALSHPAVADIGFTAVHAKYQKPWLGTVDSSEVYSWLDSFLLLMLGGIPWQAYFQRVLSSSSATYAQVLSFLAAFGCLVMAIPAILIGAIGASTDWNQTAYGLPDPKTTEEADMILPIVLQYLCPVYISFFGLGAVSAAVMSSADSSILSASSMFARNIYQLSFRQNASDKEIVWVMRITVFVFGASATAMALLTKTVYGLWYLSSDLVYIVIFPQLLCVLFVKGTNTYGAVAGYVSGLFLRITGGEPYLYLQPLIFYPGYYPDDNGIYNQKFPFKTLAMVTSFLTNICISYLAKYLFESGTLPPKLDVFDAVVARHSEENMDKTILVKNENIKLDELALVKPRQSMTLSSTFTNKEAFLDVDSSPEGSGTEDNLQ
As to the kind of experiment: human choline transporter blockers, potency – cell-based, 5-point CRC, membrane potential dye, dose response (AID 504840). The assay is classed as functional.

Assay [8] deals with T3, High affinity choline transporter 1. The assay can be described thus: human choline transporter blockers, potency – cell-based, 10-point CRC, membrane potential dye, dose response (AID 588401).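 Also: membrane potential dye fluorescence of choline-evoked depolarization via CHT.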 The assay is classed as functional.
The next assay has as its system Vero. As to the kind of experiment: viability of Vero cells under compound – cytotoxicity control for flavivirus capping enzyme inhibitors (AID 588742). The assay is classed as functional. The note with it: Chlorocebus sabaeus.
In the next assay the target is Keap1/Nrf2 (Homo sapiens, UniProt Q14145). As to the kind of experiment: disruptors of Keap1 binding to Nrf2 peptide – biochemical, fluorescence polarization, cherry-picked samples, dose response (AID 588683). (In fluorescence polarisation assays a small probe gives low polarisation when free and higher when bound to something large.)
The target in a further assay is Genome polyprotein (dengue virus type 2, UniProt P29990). The assay can be described thus: flavivirus cap methylation enzyme inhibition – biochemical, confirmation dose response, primary screen (AID 588689). The assay is classed as functional.
The target of assay [9] is T4, Polyadenylate-binding protein 1 (Homo sapiens, UniProt P11940). The assay can be described thus: MLLE binding blockers, Cy5 peptide tracer – biochemical, fluorescence polarization, Cy5-PAM2 peptide, secondary, miRNA deadenylation inhibitor project, dose response (AID 602260). The note with it: read-out: IC50_Mean. The assay is classed as functional.
The target of assay [10] is T4, Polyadenylate-binding protein 1. As to the kind of experiment: MLLE domain peptide-binding blockers, IC50 – biochemical, fluorescence polarization, FITC-PAM2 peptide, dose response (AID 602259). The assay is classed as functional. To be noted: read-out: IC50_Mean.
The nature of assay [11]: viability loss in HeLa cells – cytotoxicity control for MgcRacGAP inhibitor project, dose response (AID 624300). The assay is classed as functional.
The target in a further assay is Albumin (Bos taurus, UniProt P02769). As to the kind of experiment: Counterscreen for inhibitors of T-cell receptor (TCR)-CD3 interaction: Fluorescence-based biochemical high throughput dose response assay to identify inhibitors of T-cell receptor (TCR)-CD3 interaction using a TAMRA-labeled BSA probe. The assay is classed as functional.
For assay [12], the target named is T5, Histone-lysine N-methyltransferase NSD2 (Homo sapiens, UniProt O96028).
T5 sequence (O96028 whole entry): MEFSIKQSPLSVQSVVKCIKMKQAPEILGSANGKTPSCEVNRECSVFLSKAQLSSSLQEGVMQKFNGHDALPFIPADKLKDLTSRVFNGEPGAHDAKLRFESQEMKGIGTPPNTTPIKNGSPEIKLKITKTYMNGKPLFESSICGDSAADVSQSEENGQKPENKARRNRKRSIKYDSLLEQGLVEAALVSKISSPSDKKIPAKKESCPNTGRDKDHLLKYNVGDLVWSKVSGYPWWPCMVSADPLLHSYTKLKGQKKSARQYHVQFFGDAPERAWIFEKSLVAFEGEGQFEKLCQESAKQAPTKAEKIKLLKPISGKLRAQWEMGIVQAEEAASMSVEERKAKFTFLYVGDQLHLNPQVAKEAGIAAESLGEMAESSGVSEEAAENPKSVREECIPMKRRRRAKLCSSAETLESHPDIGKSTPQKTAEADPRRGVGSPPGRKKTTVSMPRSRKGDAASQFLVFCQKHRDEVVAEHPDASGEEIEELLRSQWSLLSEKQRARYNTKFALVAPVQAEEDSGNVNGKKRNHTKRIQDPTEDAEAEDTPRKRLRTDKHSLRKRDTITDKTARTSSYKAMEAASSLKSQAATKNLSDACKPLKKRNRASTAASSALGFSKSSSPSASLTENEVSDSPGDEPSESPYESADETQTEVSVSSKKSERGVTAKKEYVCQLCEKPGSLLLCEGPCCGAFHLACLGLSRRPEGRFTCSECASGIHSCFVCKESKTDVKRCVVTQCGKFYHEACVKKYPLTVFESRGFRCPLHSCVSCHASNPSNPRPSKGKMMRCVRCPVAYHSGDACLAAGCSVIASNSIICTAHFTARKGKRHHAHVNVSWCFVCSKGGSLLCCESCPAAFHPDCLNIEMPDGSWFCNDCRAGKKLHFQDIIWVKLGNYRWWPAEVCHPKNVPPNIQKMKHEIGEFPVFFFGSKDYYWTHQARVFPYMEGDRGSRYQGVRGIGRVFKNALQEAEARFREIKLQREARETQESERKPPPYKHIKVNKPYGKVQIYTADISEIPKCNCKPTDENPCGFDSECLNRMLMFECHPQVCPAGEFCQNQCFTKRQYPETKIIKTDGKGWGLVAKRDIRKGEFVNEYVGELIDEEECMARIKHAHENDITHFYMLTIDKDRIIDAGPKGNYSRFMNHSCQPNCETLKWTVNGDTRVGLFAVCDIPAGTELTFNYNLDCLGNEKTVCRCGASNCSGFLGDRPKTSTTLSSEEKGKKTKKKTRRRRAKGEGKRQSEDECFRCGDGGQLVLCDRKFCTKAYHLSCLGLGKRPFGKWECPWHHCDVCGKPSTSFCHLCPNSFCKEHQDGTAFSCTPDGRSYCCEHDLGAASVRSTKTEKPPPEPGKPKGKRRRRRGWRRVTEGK
The assay is classed as biochemical.

Molecules are shown by their SMILES. Activity calls are given as the source filed them. Where only a bound is given, the exact number is not on record here.

T4 sequence (P11940 whole entry, the tested form may be a part): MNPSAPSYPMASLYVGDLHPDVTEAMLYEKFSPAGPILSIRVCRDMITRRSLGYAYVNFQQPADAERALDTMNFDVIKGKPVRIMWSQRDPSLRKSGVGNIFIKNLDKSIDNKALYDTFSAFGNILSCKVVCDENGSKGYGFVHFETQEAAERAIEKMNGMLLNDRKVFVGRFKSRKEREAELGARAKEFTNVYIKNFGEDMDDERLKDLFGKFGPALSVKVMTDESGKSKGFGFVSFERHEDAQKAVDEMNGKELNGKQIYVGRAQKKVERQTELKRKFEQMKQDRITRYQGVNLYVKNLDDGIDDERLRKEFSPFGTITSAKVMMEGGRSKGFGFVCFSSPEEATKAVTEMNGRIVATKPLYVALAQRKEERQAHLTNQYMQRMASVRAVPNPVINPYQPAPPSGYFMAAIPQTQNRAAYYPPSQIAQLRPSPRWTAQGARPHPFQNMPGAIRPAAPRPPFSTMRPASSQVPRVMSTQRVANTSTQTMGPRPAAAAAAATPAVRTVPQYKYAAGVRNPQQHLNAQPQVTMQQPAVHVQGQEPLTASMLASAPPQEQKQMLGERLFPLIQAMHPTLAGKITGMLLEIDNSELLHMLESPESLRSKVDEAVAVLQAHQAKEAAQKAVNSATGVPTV
Chain of Albumin (P02769 whole entry): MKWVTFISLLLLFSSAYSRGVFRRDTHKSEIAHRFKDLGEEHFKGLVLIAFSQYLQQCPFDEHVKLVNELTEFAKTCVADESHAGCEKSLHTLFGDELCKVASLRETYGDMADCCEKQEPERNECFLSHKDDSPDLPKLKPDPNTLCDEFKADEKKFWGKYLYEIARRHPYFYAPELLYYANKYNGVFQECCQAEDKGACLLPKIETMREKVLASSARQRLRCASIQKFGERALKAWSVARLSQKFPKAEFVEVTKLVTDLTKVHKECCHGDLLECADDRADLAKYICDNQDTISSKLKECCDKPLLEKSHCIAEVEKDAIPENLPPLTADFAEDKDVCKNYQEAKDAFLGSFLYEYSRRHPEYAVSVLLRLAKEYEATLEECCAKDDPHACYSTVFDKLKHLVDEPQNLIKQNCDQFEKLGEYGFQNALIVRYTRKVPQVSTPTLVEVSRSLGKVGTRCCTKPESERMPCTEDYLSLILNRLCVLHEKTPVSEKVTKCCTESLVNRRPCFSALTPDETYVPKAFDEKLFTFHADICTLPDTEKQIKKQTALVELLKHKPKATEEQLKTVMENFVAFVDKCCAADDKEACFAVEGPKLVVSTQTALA
Chain of Genome polyprotein (P29990 2492-3391 limits assumed): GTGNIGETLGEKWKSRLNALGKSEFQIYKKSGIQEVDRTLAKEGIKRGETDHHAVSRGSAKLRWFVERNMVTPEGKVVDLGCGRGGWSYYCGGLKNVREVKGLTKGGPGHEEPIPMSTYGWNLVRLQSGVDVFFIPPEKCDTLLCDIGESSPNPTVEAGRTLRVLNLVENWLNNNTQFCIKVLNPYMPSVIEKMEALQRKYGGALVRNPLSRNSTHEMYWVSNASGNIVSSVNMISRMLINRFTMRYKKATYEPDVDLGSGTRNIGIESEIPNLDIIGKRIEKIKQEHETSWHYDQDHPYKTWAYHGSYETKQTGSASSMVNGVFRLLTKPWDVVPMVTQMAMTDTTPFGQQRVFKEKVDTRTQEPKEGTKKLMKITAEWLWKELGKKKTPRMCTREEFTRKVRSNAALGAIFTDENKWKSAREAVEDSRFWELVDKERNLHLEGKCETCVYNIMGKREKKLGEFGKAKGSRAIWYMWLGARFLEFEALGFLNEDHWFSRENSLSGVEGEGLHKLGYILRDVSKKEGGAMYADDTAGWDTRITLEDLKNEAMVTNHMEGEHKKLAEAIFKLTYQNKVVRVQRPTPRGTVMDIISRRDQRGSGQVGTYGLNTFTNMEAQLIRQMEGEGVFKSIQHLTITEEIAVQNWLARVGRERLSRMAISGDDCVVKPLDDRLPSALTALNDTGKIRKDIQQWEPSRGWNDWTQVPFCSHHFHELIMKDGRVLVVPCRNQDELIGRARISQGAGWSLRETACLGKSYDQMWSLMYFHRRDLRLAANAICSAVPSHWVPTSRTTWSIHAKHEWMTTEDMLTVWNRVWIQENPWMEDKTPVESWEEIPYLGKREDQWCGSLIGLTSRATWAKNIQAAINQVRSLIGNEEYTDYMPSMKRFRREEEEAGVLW
Chain of Keap1/Nrf2 (Q16236 whole entry): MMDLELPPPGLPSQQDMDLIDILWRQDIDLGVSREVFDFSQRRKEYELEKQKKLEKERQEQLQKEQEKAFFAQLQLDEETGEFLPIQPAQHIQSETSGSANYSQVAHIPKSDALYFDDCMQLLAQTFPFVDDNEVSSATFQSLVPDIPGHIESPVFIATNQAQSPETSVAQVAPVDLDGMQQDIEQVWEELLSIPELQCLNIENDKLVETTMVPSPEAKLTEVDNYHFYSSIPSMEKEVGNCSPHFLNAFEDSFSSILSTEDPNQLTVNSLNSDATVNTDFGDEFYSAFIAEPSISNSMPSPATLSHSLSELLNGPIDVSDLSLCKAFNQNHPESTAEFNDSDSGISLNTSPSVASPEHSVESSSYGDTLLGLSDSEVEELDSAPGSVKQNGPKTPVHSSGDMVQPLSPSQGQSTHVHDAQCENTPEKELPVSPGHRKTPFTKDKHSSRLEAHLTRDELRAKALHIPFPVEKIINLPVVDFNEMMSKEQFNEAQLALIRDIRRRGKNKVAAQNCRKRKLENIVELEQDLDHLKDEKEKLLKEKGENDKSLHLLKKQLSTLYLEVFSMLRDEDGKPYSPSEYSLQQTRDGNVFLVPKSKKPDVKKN
Chain of Keap1/Nrf2 (Q14145 whole entry): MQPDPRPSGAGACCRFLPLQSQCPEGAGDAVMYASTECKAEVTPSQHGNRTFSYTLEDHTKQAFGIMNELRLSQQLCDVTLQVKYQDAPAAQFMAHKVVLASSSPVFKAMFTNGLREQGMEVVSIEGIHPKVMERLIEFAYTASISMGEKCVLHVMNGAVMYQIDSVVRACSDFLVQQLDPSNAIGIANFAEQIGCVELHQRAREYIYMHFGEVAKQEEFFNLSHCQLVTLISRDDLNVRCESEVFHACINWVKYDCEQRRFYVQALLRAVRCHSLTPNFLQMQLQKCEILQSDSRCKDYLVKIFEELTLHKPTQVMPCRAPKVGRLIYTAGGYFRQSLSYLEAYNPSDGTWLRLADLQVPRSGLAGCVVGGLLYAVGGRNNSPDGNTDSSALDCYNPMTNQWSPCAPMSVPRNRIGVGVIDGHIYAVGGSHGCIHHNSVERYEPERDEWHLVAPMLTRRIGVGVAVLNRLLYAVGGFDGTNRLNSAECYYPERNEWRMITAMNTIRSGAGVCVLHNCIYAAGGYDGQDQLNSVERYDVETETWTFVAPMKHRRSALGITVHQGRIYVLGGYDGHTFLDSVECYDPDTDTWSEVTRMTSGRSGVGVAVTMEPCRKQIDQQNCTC

Consider `CCc1cc2c(Sc3nc4ccccc4s3)ncnc2s1`, for which the EC50 was > 120 µM (not active) in assay [1], 16.3 µM (active) in assay [3] and 3.87 µM (active) in assay [4]. Also, the CC50 in assay [2] is 30.2 µM (active). The IC50 was < 0.16 µM (active) in the assay with Jurkat and > 80 µM (inactive) in assay [5]. The AC50 is 4.9 µM (active) in the assay on HEK293 and > 52 µM (inactive) in assay [6].

As to `O=c1c2ccccc2nc(/C=C/c2ccc(F)cc2)n1Cc1ccccc1`, the IC50 on Hexokinase-1 and on Hexokinase HKDC1 was > 80 µM (inactive) in each case.

Regarding `COc1ccc(Cn2c(/C=C/c3cccnc3)nc3ccccc3c2=O)cc1`, the IC50 at Hexokinase-1 and on Hexokinase HKDC1 was > 80 µM (inactive) throughout.

For the compound `CC1=NOC(=O)/C1=C/c1ccc(O)c(Cl)c1`, the values for the IC50 in [7] and in assay [8] were 6.99 µM (active) and 3.57 µM (active), respectively.

As for `O=C(Nc1cccc(C(F)(F)F)c1)c1cccc(NC(=O)c2ccccn2)c1`, the IC50 on Hexokinase-1 and on Hexokinase HKDC1 was > 80 µM (inactive) each time.

For `O=C1C(Cl)=C(N2CCN(CCO)CC2)C(=O)c2c(O)ccc(O)c21`, the results for the CC50 (in the assay with Vero; in assay [11]) were 2.85 µM (active) and 12.9 µM (active), respectively. Moreover, the AC50 is > 52 µM (inactive) on Keap1/Nrf2 and 4.44 µM (active) in assay [12]. Also, the IC50 is 4.58 µM (active) at Genome polyprotein, > 66 µM (inactive) in assay [9], 60.6 µM (inactive) in [10] and 29.1 µM (inactive) on Albumin.

Broadly, the EC50 is the concentration that produces a half-maximal response. As a reminder, the CC50 is the concentration giving 50% cytotoxicity. A word on the AC50: it is the midpoint of the concentration-response curve, whichever way the signal moves.
